Measurements as given in ChEMBL document CHEMBL5465560, “Selectivity Literature for EUbOPEN Chemogenomic Library” (2024).

Legend:
[1] = target: Serine/threonine-protein kinase MRCK beta (Homo sapiens) (UniProt Q9Y5S2); test: Selectivity interaction (Upstate Kinase Profiler service (Millipore)) EUB0000056c CDC42BPB; conditions: at 1 µM
[2] = target: Mitogen-activated protein kinase 11 (Homo sapiens) (UniProt Q15759); test: Selectivity interaction (KinomeScan (DiscoverX)) EUB0001079a MAPK11; conditions: at 1 µM
Sequence of Mitogen-activated protein kinase 11 (Homo sapiens) (Q15759 whole entry): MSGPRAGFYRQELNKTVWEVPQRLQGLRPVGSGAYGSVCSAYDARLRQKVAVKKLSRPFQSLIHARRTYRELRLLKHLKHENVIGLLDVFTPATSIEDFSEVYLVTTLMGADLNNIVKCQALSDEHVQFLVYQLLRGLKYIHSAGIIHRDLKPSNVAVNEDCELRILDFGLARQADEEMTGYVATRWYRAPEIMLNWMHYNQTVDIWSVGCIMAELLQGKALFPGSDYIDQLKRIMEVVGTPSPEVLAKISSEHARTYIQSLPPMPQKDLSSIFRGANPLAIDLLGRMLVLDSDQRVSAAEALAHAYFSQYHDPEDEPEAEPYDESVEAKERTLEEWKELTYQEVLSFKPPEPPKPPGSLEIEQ

[3] = target: Serine/threonine-protein kinase PAK 6 (Homo sapiens) (UniProt Q9NQU5); test: Selectivity interaction (KinomeScan (DiscoverX)) EUB0001079a PAK6; conditions: at 1 µM
Sequence of Serine/threonine-protein kinase PAK 6 (Homo sapiens) (Q9NQU5 whole entry, looked up): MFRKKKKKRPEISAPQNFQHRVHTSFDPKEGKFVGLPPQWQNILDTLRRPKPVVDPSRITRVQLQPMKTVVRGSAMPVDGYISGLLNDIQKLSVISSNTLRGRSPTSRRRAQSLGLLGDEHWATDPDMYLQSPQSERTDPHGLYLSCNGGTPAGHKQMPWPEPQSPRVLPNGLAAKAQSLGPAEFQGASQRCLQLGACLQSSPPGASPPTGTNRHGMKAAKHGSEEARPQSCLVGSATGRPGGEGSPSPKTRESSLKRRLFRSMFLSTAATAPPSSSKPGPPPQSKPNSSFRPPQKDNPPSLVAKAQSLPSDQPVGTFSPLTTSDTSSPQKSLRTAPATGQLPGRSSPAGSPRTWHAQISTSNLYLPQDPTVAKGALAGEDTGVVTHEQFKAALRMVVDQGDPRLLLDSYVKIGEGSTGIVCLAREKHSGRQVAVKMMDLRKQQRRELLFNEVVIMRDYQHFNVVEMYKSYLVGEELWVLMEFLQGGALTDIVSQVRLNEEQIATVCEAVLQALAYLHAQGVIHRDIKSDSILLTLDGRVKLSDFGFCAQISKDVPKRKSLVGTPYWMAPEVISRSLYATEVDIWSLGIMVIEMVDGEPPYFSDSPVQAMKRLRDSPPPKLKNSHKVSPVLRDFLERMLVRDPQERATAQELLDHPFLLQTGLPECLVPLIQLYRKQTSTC

[4] = target: T1, Interleukin-1 receptor-associated kinase 4 (Homo sapiens) (UniProt Q9NWZ3); test: Selectivity interaction (KinomeScan (DiscoverX)) EUB0000607a IRAK4; conditions: at 10 µM
T1 sequence (whole entry): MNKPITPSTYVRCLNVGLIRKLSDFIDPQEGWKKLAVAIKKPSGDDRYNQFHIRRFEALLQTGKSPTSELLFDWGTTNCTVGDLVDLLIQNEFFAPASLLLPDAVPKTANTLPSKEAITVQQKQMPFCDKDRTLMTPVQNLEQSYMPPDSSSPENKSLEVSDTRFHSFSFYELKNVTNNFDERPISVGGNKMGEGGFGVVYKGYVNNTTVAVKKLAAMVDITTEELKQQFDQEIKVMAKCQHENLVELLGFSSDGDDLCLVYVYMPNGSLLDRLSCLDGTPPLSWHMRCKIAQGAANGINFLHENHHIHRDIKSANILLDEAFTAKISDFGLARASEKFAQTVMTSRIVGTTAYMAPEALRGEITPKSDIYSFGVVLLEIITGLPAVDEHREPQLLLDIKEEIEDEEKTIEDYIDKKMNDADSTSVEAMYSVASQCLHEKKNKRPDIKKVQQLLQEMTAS

[5] = target: T2, Serine/threonine-protein kinase STK11 (Homo sapiens) (UniProt Q15831); test: Selectivity interaction (KinomeScan (DiscoverX)) EUB0000607a STK11; conditions: at 10 µM
T2 sequence (whole entry): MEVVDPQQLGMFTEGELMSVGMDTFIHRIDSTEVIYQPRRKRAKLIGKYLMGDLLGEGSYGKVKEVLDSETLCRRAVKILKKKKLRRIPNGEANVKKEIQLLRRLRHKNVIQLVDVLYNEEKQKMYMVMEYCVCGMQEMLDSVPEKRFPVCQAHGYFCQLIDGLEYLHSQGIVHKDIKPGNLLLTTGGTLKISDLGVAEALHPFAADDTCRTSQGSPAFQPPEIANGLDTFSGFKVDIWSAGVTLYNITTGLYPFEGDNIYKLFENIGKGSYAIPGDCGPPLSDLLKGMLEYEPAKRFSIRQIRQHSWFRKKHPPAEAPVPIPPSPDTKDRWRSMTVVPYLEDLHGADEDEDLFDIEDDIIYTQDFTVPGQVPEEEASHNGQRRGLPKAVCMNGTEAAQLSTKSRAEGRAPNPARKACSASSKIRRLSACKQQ

[6] = target: T3, Dual serine/threonine and tyrosine protein kinase (Homo sapiens) (UniProt Q6XUX3); test: Selectivity interaction (KinomeScan (DiscoverX)) EUB0001049a DSTYK; conditions: at 1 µM
T3 sequence (whole entry): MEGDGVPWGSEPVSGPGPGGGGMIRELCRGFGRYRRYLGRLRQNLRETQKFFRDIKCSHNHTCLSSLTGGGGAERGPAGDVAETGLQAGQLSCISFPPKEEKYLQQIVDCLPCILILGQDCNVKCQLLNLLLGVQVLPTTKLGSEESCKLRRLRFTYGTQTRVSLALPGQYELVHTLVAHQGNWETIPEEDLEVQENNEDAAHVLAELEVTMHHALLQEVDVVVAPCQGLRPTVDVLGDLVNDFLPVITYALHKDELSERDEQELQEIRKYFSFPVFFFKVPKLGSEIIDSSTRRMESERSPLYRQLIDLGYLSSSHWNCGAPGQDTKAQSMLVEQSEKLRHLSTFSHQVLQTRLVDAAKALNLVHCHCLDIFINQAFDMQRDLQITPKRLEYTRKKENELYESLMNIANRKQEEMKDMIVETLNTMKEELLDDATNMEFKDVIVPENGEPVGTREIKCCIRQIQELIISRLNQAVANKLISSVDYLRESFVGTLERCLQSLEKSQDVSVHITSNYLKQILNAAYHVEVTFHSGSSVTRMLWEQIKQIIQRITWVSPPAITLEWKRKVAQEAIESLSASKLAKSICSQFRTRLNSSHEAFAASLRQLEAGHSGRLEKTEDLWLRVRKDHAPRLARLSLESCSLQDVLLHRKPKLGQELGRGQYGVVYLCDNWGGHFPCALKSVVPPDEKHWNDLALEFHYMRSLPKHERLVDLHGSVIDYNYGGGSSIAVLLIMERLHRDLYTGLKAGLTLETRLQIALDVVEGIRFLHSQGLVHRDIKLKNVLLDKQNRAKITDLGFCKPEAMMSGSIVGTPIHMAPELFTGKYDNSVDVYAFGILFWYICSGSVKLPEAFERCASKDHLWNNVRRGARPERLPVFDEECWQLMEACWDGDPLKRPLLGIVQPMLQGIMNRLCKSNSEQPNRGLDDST

[7] = target: T4, Hormonally up-regulated neu tumor-associated kinase (Homo sapiens) (UniProt P57058); test: Selectivity interaction (KinomeScan (DiscoverX)) EUB0000618a HUNK; conditions: at 10 µM
T4 sequence (whole entry): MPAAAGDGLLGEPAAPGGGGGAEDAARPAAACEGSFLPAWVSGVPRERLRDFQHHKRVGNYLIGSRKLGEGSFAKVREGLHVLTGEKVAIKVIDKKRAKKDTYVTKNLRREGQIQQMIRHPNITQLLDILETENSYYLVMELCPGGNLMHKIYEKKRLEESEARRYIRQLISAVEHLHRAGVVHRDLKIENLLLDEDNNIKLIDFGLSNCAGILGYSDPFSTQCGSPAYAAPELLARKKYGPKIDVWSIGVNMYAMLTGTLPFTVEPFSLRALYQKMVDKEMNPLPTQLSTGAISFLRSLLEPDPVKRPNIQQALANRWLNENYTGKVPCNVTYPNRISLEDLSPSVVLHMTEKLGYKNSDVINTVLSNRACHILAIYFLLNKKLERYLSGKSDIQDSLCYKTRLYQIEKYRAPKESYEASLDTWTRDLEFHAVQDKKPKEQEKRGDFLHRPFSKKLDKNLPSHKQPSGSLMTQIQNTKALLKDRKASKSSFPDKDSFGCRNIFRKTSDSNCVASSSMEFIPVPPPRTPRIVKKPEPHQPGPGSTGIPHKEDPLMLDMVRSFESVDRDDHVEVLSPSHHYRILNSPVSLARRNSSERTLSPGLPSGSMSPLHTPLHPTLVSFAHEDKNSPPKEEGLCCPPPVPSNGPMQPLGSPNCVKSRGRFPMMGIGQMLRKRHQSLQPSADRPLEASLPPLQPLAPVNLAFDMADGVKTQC

[8] = target: Ribosomal protein S6 kinase alpha-1 (Homo sapiens, UniProt Q15418); test: Selectivity interaction (Kinase screening (Nanosyn)) EUB0000604a RPS6KA1
Sequence of Ribosomal protein S6 kinase alpha-1 (Q15418 whole entry): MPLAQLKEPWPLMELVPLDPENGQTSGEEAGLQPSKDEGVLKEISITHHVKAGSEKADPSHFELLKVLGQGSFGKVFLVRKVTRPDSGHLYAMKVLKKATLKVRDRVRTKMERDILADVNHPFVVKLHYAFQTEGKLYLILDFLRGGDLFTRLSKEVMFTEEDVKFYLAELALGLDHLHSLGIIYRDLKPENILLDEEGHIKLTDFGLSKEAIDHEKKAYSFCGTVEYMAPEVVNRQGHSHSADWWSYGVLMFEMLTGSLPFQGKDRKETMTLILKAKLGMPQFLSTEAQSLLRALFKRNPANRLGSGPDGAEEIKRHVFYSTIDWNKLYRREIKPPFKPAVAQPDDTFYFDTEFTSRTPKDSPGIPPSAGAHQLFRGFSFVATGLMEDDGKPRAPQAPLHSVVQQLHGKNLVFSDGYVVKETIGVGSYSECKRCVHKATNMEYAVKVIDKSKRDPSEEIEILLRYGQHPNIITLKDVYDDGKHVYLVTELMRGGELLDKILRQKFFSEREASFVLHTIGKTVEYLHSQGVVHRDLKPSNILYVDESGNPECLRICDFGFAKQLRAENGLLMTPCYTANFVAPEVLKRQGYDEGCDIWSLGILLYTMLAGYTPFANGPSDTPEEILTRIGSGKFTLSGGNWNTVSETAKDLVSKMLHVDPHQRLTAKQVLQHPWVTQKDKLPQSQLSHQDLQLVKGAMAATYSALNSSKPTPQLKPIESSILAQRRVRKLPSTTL

Sequence of Serine/threonine-protein kinase MRCK beta (Homo sapiens) (Q9Y5S2 whole entry): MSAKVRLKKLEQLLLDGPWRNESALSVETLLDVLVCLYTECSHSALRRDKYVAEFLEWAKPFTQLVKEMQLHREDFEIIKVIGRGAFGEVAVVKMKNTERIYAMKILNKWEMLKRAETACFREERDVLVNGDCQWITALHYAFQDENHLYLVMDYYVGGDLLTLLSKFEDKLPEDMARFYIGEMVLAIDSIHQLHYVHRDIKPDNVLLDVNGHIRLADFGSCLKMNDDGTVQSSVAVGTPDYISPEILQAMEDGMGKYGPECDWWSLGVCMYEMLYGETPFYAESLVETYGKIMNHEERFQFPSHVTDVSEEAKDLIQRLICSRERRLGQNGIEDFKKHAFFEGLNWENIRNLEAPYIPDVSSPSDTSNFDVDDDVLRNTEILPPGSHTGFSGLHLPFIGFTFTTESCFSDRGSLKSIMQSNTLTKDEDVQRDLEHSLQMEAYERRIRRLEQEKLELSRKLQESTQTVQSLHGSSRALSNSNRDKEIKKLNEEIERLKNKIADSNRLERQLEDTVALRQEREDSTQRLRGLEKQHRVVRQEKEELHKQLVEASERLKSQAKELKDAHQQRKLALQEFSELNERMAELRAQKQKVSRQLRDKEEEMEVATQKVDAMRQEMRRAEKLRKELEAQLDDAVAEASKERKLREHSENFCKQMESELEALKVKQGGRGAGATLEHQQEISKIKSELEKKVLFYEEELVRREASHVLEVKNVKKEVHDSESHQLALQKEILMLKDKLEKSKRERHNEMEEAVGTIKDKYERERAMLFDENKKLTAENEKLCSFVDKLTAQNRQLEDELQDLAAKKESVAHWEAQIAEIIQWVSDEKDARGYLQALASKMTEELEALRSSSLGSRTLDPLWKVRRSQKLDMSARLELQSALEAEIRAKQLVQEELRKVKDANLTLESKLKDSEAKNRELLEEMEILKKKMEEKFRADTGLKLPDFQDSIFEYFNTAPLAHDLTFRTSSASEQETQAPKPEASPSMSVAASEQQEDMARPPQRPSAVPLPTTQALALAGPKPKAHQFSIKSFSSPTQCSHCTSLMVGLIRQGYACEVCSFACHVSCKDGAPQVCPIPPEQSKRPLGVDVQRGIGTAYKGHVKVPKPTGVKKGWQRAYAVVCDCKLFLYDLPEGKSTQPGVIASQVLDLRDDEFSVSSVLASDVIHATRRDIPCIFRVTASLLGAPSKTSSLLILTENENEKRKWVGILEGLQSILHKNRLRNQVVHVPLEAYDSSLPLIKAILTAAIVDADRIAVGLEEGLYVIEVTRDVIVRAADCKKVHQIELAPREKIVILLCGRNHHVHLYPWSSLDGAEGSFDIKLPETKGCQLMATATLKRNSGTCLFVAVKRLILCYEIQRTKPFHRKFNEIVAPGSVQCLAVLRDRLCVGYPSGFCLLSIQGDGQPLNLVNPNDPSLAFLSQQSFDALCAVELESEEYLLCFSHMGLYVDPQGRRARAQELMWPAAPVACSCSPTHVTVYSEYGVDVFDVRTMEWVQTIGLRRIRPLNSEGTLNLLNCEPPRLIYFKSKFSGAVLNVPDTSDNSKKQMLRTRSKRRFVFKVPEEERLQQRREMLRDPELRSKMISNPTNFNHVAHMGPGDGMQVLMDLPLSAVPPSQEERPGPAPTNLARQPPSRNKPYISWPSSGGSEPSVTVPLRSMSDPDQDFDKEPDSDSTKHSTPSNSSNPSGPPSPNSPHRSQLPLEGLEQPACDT

Structure (SMILES): Cc1ccc(-c2ccc3c(ccc4sc5c(c43)NC[C@@H](C)NC5=O)n2)cn1
- % of inhibition [1]: 4%

Structure (SMILES): Nc1cnc(N2CCc3cc(S(=O)(=O)Nc4c(F)cc(Cl)cc4F)cc(N4CCCC4=O)c32)nc1 [TP-020n]
- % of control [2]: 100%
- % of control [3]: 90%

Structure (SMILES): CNC(=O)Nc1ccc(-c2nc(N3CC4CCC(C3)O4)c3cnn(C4CCC5(CC4)OCCO5)c3n2)cc1
- % of control [4]: 100%
- % of control [5]: 80%

Structure (SMILES): COc1cc(Nc2nc(C)cc(-c3cnn4nc(OC)ccc34)n2)cc(C(F)(F)F)c1
- % of control [6]: 79%

Structure (SMILES): O[C@H]1CC[C@H](Nc2ncc3nc(Nc4c(F)cc(F)cc4F)n([C@H]4CCOC4)c3n2)CC1
- % of control [7]: 89%

Structure (SMILES): Cc1cnc(Nc2ccc(F)cc2Cl)nc1-c1c[nH]c(C(=O)N[C@H](CO)c2cccc(Cl)c2)c1
- % of inhibition [8]: 4%
